For 15 molecules, EC50 and EC90 results are on record in ChEMBL document CHEMBL5661943, “ASAP - In vitro antiviral effect” (2024).

Each structure is given as a SMILES string.

For experiment [1], the system named is Zika virus. The experiment can be described thus: Functional CPE-based assay to measure dose dependent changes in antiviral-drug inhibitory efficacy against Zika virus MR766 in Vero E6 miRFP670 cells (cotreated with P-gp inhibitor, CP100356). Cells are treated with antiviral candidates that are serially diluted. EC50 is reported via analysis of MTS assay as a readout of CPE. The assay has been performed by KU Leuven. The settings on record: Zika virus; for EC90: P-gp concentration 500 nM, P-gp inhibitor CP100356. It is filed as organism-based, Chlorocebus sabaeus, Vero C1008. Background: Formazan colour is commonly taken as a measure of viable cells.

Experiment [2] has as its system dengue virus type 2. The experiment can be described thus: Functional assay to measure dose dependent changes in antiviral-drug inhibitory efficacy against Dengue virus type 2 New Guinea C in Vero E6 miRFP670 cells (cotreated with P-gp inhibitor, CP100356). Cells are treated with antiviral candidates that are serially diluted, following infection, cells are fixed. EC50 is reported via analysis of fluorescence intensity using high-content imager. The …. It is filed as organism-based, Chlorocebus sabaeus, Vero C1008.

Experiment [3] concerns Zika virus. The experiment can be described thus: Functional CPE-based assay to measure dose dependent changes in antiviral-drug inhibitory efficacy against Zika virus MR766 in Vero E6 miRFP670 cells. Cells are treated with antiviral candidates that are serially diluted. EC50 is reported via analysis of MTS assay as a readout of CPE. The assay has been performed by KU Leuven. Format: organism-based, Chlorocebus sabaeus, Vero C1008. The settings on record: Zika virus; for EC50: Vero C1008.

Experiment [4] deals with Zika virus. The experiment is described as follows: EC50 is reported via analysis of immunofluorescence staining. The assay has been performed by Icahn School of Medicine at Mount Sinai. It is filed as functional, organism-based, Chlorocebus sabaeus, VeroE6/TMPRSS2. The settings on record: Zika virus, VeroE6/TMPRSS2.

A word on the EC50: it is the concentration that produces a half-maximal response. For orientation: EC90 means the concentration needed for an effect of 90%. As for `O=C1Cc2c(cccc2C(=O)Nc2ccc3c(c2)CNC3)N1`, the EC50 is above 50 µM in experiment [1] (Vero C1008); above 50 µM in experiment [2] (Dengue virus, Vero C1008); above 50 µM in experiment [3]. Also, the EC90 was above 50 µM in experiment [1] (Vero C1008, Baseline response 0 %, Hill slope 0.131, Maximum measured 3.439 %, Maximum response 100 %, Minimum measured 0.392 %, R squared 0.059); above 50 µM in experiment [2] (Dengue virus, Vero C1008, Maximum measured 146.808 %, Minimum measured 90.834 %, P-gp concentration 500 nM, P-gp inhibitor CP100356); above 50 µM in experiment [3] (Vero C1008, Baseline response 0 %, Hill slope 0.284, Maximum measured 8.076 %, Maximum response 100 %, Minimum measured -0.771 %, R squared 0.143).

Consider `O=C(Nc1ccc(C2CNC2)cc1)c1cc(Cl)cc2[nH]ncc12`, for which the EC50 in experiment [2] (Dengue virus, Vero C1008) was 8.78 µM; in experiment [3], above 50 µM. In addition, the EC90 is 30.4 µM in experiment [2] (Dengue virus, Vero C1008, Baseline response 0 %, EC90 CI (lower) 1.814 uM, EC90 CI (upper) 3.53 uM, Hill slope -1.767, Maximum measured 103.682 %, Maximum response 100 %, Minimum measured 12.273 %, P-gp concentration 500 nM, R squared 0.972, P-gp inhibitor CP100356) and above 50 µM in experiment [3] (Vero C1008, Maximum measured 1.247 %, Minimum measured -2.682 %).

Consider `Cn1ncc2c(C(=O)Nc3ccc4c(c3)CNC4)cc(Br)cc21`, for which the EC50 in experiment [2] (Dengue virus, Vero C1008) is below 0.391 µM; in experiment [3], above 50 µM. The EC90 in experiment [2] (Dengue virus, Vero C1008, Baseline response 0 %, Hill slope 1.42, Maximum measured 130.593 %, Maximum response 100 %, Minimum measured 71.5 %, P-gp concentration 500 nM, R squared 0.202, P-gp inhibitor CP100356) is below 0.391 µM; in experiment [3] (Vero C1008, Baseline response 0 %, Hill slope 2.334, Maximum measured 28.881 %, Maximum response 100 %, Minimum measured -5.706 %, R squared 0.821), above 50 µM.

As to `CCc1nc2c(C(=O)Nc3ccc4c(c3)CNC4)cc(Br)cc2[nH]1`, the EC50 in experiment [4] was above 5.56 µM; in experiment [2] (Dengue virus, Vero C1008) it was above 50 µM; in experiment [3], above 50 µM. In addition, the EC90 in experiment [4] (Baseline response 0 %, Hill slope 0.058, Maximum measured 88.326 %, Maximum response 100 %, Minimum measured 53.216 %, P-gp concentration 2 uM, R squared 0.024, P-gp inhibitor Elacidar) was above 5.56 µM; in experiment [2] (Dengue virus, Vero C1008, Maximum measured 122.691 %, Minimum measured 98.084 %, P-gp concentration 500 nM, P-gp inhibitor CP100356), above 50 µM; in experiment [3] (Vero C1008, Baseline response 0 %, Hill slope 0.303, Maximum measured 9.479 %, Maximum response 100 %, Minimum measured 2.16 %, R squared 0.852), above 50 µM.

For the molecule `NCCc1ccc([C@H]2C[C@@H]2c2cc(Cl)cc(NC(=O)OCc3ccccc3)c2)cc1`, the EC50 in experiment [1] (Vero C1008) was above 50 µM; in experiment [2] (Dengue virus, Vero C1008) it was above 3.12 µM; in experiment [2] (vero c1008), above 6.25 µM; in experiment [3], above 50 µM. In addition, the EC90 in experiment [1] (Vero C1008, Maximum measured 6.997 %, Minimum measured -5.737 %) was above 50 µM; in experiment [2] (Dengue virus, Vero C1008, Maximum measured 120.903 %, Minimum measured 100.357 %, P-gp concentration 500 nM, P-gp inhibitor CP100356) it was above 3.12 µM; in experiment [2] (Dengue virus, Vero C1008, Maximum measured 221.095 %, Minimum measured 80.639 %, P-gp concentration 500 nM, P-gp inhibitor CP100356), above 6.25 µM; in experiment [3] (Vero C1008, Maximum measured 1.279 %, Minimum measured -5.481 %) it was above 50 µM.

With `O=C(Nc1cc(Cl)cc(C(=O)Nc2ccc(C3CCNCC3)cc2)c1)OCc1ccccc1`, the EC50 in experiment [1] (Vero C1008) was above 50 µM; in experiment [2] (Dengue virus, Vero C1008), 2.86 µM; in experiment [2] (vero c1008), 1.51 µM; in experiment [3] it was above 50 µM. Moreover, the EC90 in experiment [1] (Vero C1008, Maximum measured 2.883 %, Minimum measured -3.299 %) is above 50 µM; in experiment [2] (Baseline response 0 %, Hill slope -20.516, Maximum measured 137.543 %, Maximum response 100 %, Minimum measured 2.498 %, P-gp concentration 500 nM, R squared 0.862, P-gp inhibitor CP100356), 1.68 µM; in experiment [2] (Dengue virus, Vero C1008), 3.23 µM; in experiment [3] (Vero C1008, Maximum measured […], Minimum measured -3.389 %), above 50 µM.

`O=C(Nc1cc(Cl)cc(-c2ccc3cc(C(=O)O)[nH]c3c2)c1)OCc1ccccc1`: the EC50 was above 50 µM in experiment [1] (Vero C1008); 27.6 µM in experiment [2] (Dengue virus, Vero C1008); above 50 µM in experiment [3]. For the same molecule, the EC90 in experiment [1] (Vero C1008, Baseline response 0 %, Hill slope 0.219, Maximum measured 11.412 %, Maximum response 100 %, Minimum measured -1.306 %, R squared 0.087) was above 50 µM; in experiment [2] (Dengue virus, Vero C1008, Baseline response 0 %, Hill slope -2.588, Maximum measured 127.292 %, Maximum response 100 %, Minimum measured 18.339 %, P-gp concentration 500 nM, R squared 0.622, P-gp inhibitor CP100356), above 50 µM; in experiment [3] (Vero C1008, Maximum measured -0.377 %, Minimum measured -2.566 %), above 50 µM.

On to `NCc1cccc(NC(=O)c2cc(Cl)cc(C(N)=O)c2)c1`, for which the EC50 was above 50 µM in experiment [2] (Dengue virus, Vero C1008) and below 0.391 µM in experiment [3]. For the same molecule, the EC90 in experiment [2] (Dengue virus, Vero C1008, Maximum measured 162.876 %, Minimum measured 96.337 %, P-gp concentration 500 nM, P-gp inhibitor CP100356) was above 50 µM; in experiment [3] (Vero C1008, Baseline response 0 %, Hill slope -0.109, Maximum measured 5.527 %, Maximum response 100 %, Minimum measured 1.124 %, R squared 0.046) it was below 0.391 µM.

Turning to `NCc1cc(NC(=O)c2cc(Cl)cc(NC(=O)OCc3ccccc3)c2)cc([C@@H]2C[C@H]2C(=O)O)c1`, the EC50 in experiment [2] (Dengue virus, Vero C1008) was above 12.5 µM; in experiment [3], above 50 µM. Moreover, the EC90 was above 12.5 µM in experiment [2] (Dengue virus, Vero C1008, Maximum measured 109.098 %, Minimum measured 97.886 %, P-gp concentration 500 nM, P-gp inhibitor CP100356) and above 50 µM in experiment [3] (Vero C1008, Maximum measured -4.084 %, Minimum measured -7.869 %).

`CNC(=O)[C@H](Nc1cc(CN)cc(C(=O)O)c1)c1cc(Cl)cc(C2CC2)c1`: the EC50 was above 50 µM in experiment [2] (Dengue virus, Vero C1008) and above 50 µM in experiment [3]. Besides, the EC90 was above 50 µM in experiment [2] (Dengue virus, Vero C1008, Maximum measured 120.74 %, Minimum measured 102.141 %, P-gp concentration 500 nM, P-gp inhibitor CP100356) and above 50 µM in experiment [3] (Vero C1008, Maximum measured 1.859 %, Minimum measured -2.673 %).

As for `C[C@@]1(c2cccc(CN)c2)C[C@H]1c1cc(Cl)cc(NC(=O)OCc2ccccc2)c1`, the EC50 is 2.11 µM in experiment [2] (Dengue virus, Vero C1008) and above 50 µM in experiment [3]. For the same molecule, the EC90 in experiment [2] (Dengue virus, Vero C1008, Baseline response 0 %, Hill slope -1.211, Maximum measured 80.402 %, Maximum response 100 %, Minimum measured 6.127 %, P-gp concentration 500 nM, R squared 0.862, P-gp inhibitor CP100356) is above 6.25 µM; in experiment [3] (Vero C1008, Maximum measured 2.64 %, Minimum measured -3.015 %) it was above 50 µM.

For `OCC#C[C@H](Nc1ccc2c(c1)CNC2)c1cc(Cl)cc2[nH]ncc12`, the EC50 is above 50 µM in experiment [2] (Dengue virus, Vero C1008) and above 50 µM in experiment [3]. Also, the EC90 is above 50 µM in experiment [2] (Dengue virus, Vero C1008, Baseline response 0 %, Hill slope -0.86, Maximum measured 99.542 %, Maximum response 100 %, Minimum measured 57.079 %, P-gp concentration 500 nM, R squared 0.671, P-gp inhibitor CP100356); above 50 µM in experiment [3] (Vero C1008, Baseline response 0 %, Hill slope -0.322, Maximum measured 7.802 %, Maximum response 100 %, Minimum measured -1.073 %, R squared 0.225); above 50 µM in experiment [3] (Vero C1008, Maximum measured -0.957 %, Minimum measured -6.863 %).

As for `O=C(O)c1cc2cc(-c3cc(Cl)cc(C4CC4)c3)ccc2[nH]1`, the concentration giving a half-maximal response (EC50) is above 50 µM in experiment [1] (Vero C1008); 45.8 µM in experiment [2] (Dengue virus, Vero C1008); above 50 µM in experiment [3]. Further, the EC90 in experiment [1] (Vero C1008, Baseline response 0 %, Hill slope 0.262, Maximum measured 7.755 %, Maximum response 100 %, Minimum measured -1.169 %, R squared 0.013) is above 50 µM; in experiment [2] (Dengue virus, Vero C1008, Baseline response 0 %, Hill slope -21.982, Maximum measured 163.66 %, Maximum response 100 %, Minimum measured 12.537 %, P-gp concentration 500 nM, R squared 0.152, P-gp inhibitor CP100356), above 50 µM; in experiment [3] (Vero C1008, Baseline response 0 %, Hill slope 0.633, Maximum measured 10.894 %, Maximum response 100 %, Minimum measured 0.566 %, R squared 0.67), above 50 µM.

Turning to `CCc1cc(Br)cc2c(Cc3ccc(-c4nnn[nH]4)cc3)c[nH]c12`, the EC50 in experiment [1] (Vero C1008) was above 50 µM; in experiment [2] (Dengue virus, Vero C1008) it was 24.8 µM; in experiment [2] (vero c1008) it was 23.3 µM; in experiment [3], above 50 µM. For the same molecule, the EC90 is above 50 µM in experiment [1] (Vero C1008, Maximum measured 2.453 %, Minimum measured -6.07 %); above 25 µM in experiment [2] (Baseline response 0 %, Hill slope -20.83, Maximum measured 154.882 %, Maximum response 100 %, Minimum measured 18.569 %, P-gp concentration 500 nM, R squared 0.389, P-gp inhibitor CP100356); 26.9 µM in experiment [2] (Dengue virus, Vero C1008, Baseline response 0 %, Hill slope -25.951, Maximum measured 114.444 %, Maximum response 100 %, Minimum measured 0.23 %, P-gp concentration 500 nM, R squared 0.943, P-gp inhibitor CP100356); above 50 µM in experiment [3] (Vero C1008, Baseline response 0 %, Hill slope -0.347, Maximum measured 5.052 %, Maximum response 100 %, Minimum measured -3.467 %, R squared 0.177); above 50 µM in experiment [3] (Vero C1008, Maximum measured -3.488 %, Minimum measured -8.239 %).

`CNC(=O)[C@H](Nc1cc(CN)cc(C(=O)O)c1)c1cc(Cl)cc(NC(=O)OCc2ccccc2)c1`: the EC50 is above 50 µM in experiment [2] (Dengue virus, Vero C1008) and above 50 µM in experiment [3]. The EC90 is above 50 µM in experiment [2] (Dengue virus, Vero C1008, Maximum measured 124.943 %, Minimum measured 103.159 %, P-gp concentration 500 nM, P-gp inhibitor CP100356) and above 50 µM in experiment [3] (Vero C1008, Baseline response 0 %, Hill slope -2.362, Maximum measured 1.225 %, Maximum response 100 %, Minimum measured -2.193 %, R squared 0.027).
